What was measured:
tHTT = assay: Mutant and total HTT multiplex HTRF assay in Q48 HTT human embryonic stem cell line: tHTT; assay type: cell-based; settings: Q48 HTT hESC, 48 hours
Method in brief: (§1)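 Q48 HTT hESCs from HD donors were treated with compound for 48 h at 37 °C after 24 h adherence, then lysed. Lysates were read by multiplex HTRF with N-terminal donor, polyQ (MW1) and post-polyQ (MAB2166) antibodies for 4-6 h at RT. Donor/acceptor ratios give relative mHTT and tHTT; pIC50 reported.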

mHTT = assay: Mutant and total HTT multiplex HTRF assay in Q48 HTT human embryonic stem cell line: mHTT; assay type: cell-based; settings: Q48 HTT hESC, 48 hours
Method in brief: as §1

Structure (SMILES) | tHTT pIC50 (tHTT) | Rating (based on mHTT potency) (mHTT) | mHTT pIC50 (mHTT)
COc1cc(-c2sc(C)nc2C)ccc1-c1nnc(N(C)C2CC(C)(C)NC(C)(C)C2)s1 [Compound 62, 5-(4-(2,4-dimethylthiazol-5-yl)-2-methoxyphenyl)-N-methyl-N-(2,2,6,6-tetramethylpiperidin-4-yl)-1,3,4-thiadiazol-2-amine] | 6.6405 | *** (a pIC50 value between 6.5 and 7.0 is indicated by three stars (***)) | 6.6555
CCOc1cc(C)nc2cc(O)c(-c3ccc(N(C)C4CC(C)(C)NC(C)(C)C4)nn3)cc12 [Compound 63, 4-ethoxy-2-methyl-6-(6-(methyl(2,2,6,6-tetramethylpiperidin-4-yl)amino)pyridazin-3-yl)quinolin-7-ol] | 6.534 | *** (a pIC50 value between 6.5 and 7.0 is indicated by three stars (***)) | 6.63
CN(c1ccc(-c2cc3ccc(C#N)nc3cc2O)nn1)C1CC(C)(C)NC(C)(C)C1 [Compound 64, 7-hydroxy-6-(6-(methyl(2,2,6,6-tetramethylpiperidin-4-yl)amino)pyridazin-3-yl)quinoline-2-carbonitrile] | 6.5885 | *** (a pIC50 value between 6.5 and 7.0 is indicated by three stars (***)) | 6.5945
COc1cc(-c2cn[nH]c2)c(F)c(F)c1-c1nnc(N(C)C2CC(C)(C)NC(C)(C)C2)s1 [Compound 65, 5-(2,3-difluoro-6-methoxy-4-(1H-pyrazol-4-yl)phenyl)-N-methyl-N-(2,2,6,6-tetramethylpiperidin-4-yl)-1,3,4-thiadiazol-2-amine] | 6.5835 | *** (a pIC50 value between 6.5 and 7.0 is indicated by three stars (***)) | 6.5865
CN(c1ccc(-c2cc3c(cc2O)C(=O)CC3)nn1)C1CC(C)(C)NC(C)(C)C1 [Compound 66, 6-hydroxy-5-(6-(methyl(2,2,6,6-tetramethylpiperidin-4-yl)amino)pyridazin-3-yl)-2,3-dihydro-1H-inden-1-one] | 6.637 | *** (a pIC50 value between 6.5 and 7.0 is indicated by three stars (***)) | 6.5815
COc1ccc(-c2ccc(-c3ccc(N(C)C4CC(C)(C)NC(C)(C)C4)nn3)c(O)c2)cn1 [Compound 67, 5-(6-methoxypyridin-3-yl)-2-(6-(methyl(2,2,6,6-tetramethylpiperidin-4-yl)amino)pyridazin-3-yl)phenol] | 6.452 | *** (a pIC50 value between 6.5 and 7.0 is indicated by three stars (***)) | 6.547
CN(c1ccc(-c2cc3ccc(OCCC(C)(C)O)cc3cc2O)nn1)C1CC(C)(C)NC(C)(C)C1 [Compound 68, 7-(3-hydroxy-3-methylbutoxy)-3-(6-(methyl(2,2,6,6-tetramethylpiperidin-4-yl)amino)pyridazin-3-yl)naphthalen-2-ol] | 6.488 | *** (a pIC50 value between 6.5 and 7.0 is indicated by three stars (***)) | 6.529
CC1CC(Oc2ccc(-c3ccc(-c4cn[nH]c4)cc3O)nn2)CC(C)N1 (stereo not drawn) [Compound 69, 2-(6-((2,6-dimethylpiperidin-4-yl)oxy)pyridazin-3-yl)-5-(1H-pyrazol-4-yl)phenol] | 7.089 | **** (a pIC50 value between 7.0 and 7.5 is indicated by four stars (****)) | 7.1525
C[C@@H]1CC(Oc2ccc(-c3ccc(-n4cccn4)cc3O)nn2)C[C@@H](C)N1 (stereo partly drawn) [Compound 70, 2-(6-(((2R,6R)-2,6-dimethylpiperidin-4-yl)oxy)pyridazin-3-yl)-5-(1H-pyrazol-1-yl)phenol] | 5.806 | * (a pIC50 value between 5 and 6 is indicated by a single star (*)) | 5.999
Oc1ccc2cc(-c3ccc(C4CCNCC4)nn3)c(O)cc2c1 [Compound 71, 3-(6-(piperidin-4-yl)pyridazin-3-yl)naphthalene-2,7-diol] | 5.997 | * (a pIC50 value between 5 and 6 is indicated by a single star (*)) | 5.996
CC1(C)CC(Oc2ccc(-c3ccc(-n4cccn4)cc3O)nn2)CCN1 (stereo not drawn) [Compound 72, 2-(6-((2,2-dimethylpiperidin-4-yl)oxy)pyridazin-3-yl)-5-(1H-pyrazol-1-yl)phenol] | 6.13 | ** (a pIC50 value between 6 and 6.5 is indicated by two stars (**)) | 6.21
Oc1cc(-c2cn[nH]c2)ccc1-c1ccc(N2C[C@H]3CNC[C@H]3C2)nn1 [Compound 74, 2-(6-((3aR,6aS)-hexahydropyrrolo[3,4-c]pyrrol-2(1H)-yl)pyridazin-3-yl)-5-(1H-pyrazol-4-yl)phenol] | 6.02 | ** (a pIC50 value between 6 and 6.5 is indicated by two stars (**)) | 6.03
COc1cc(-c2cnn(C)c2)ccc1-c1nnc(N2CC3(CCNCC3)C2)s1 [Compound 75, 2-(2-methoxy-4-(1-methyl-1H-pyrazol-4-yl)phenyl)-5-(2,7-diazaspiro[3.5]nonan-2-yl)-1,3,4-thiadiazole] | 6.4335 | ** (a pIC50 value between 6 and 6.5 is indicated by two stars (**)) | 6.4375
CN(c1nnc(-c2ccc(-c3cn[nH]c3)cc2F)s1)C1CC(C)(C)NC(C)(C)C1 [Compound 76, 5-(2-fluoro-4-(1H-pyrazol-4-yl)phenyl)-N-methyl-N-(2,2,6,6-tetramethylpiperidin-4-yl)-1,3,4-thiadiazol-2-amine] | 6.075 | ** (a pIC50 value between 6 and 6.5 is indicated by two stars (**)) | 6.0645
CN(c1nnc(-c2cc3cc(C#N)ccc3s2)s1)C1CC(C)(C)NC(C)(C)C1 [Compound 77, 2-(5-(methyl(2,2,6,6-tetramethylpiperidin-4-yl)amino)-1,3,4-thiadiazol-2-yl)benzo[b]thiophene-5-carbonitrile] | 6.1615 | ** (a pIC50 value between 6 and 6.5 is indicated by two stars (**)) | 6.137
CN(c1nnc(-c2cc3c(cc2O)C(=O)CC3)s1)C1CC(C)(C)NC(C)(C)C1 [Compound 78, 6-hydroxy-5-(5-(methyl(2,2,6,6-tetramethylpiperidin-4-yl)amino)-1,3,4-thiadiazol-2-yl)-2,3-dihydro-1H-inden-1-one] | 6.152 | ** (a pIC50 value between 6 and 6.5 is indicated by two stars (**)) | 6.264
